Experiments:
S. aureus = assay: Minimum Bactericidal Concentration (MBC) assay (CAMHB); format: cell-based, Staphylococcus aureus; conditions: Table 4, all ΔΔ- enantiomers
Experimental: (§1) Further MIC assays and Minimum Bactericidal Concentration (MBC) assays were conducted against Gram-positive and Gram-negative bacterial strains using symmetric and non-symmetric, inert and labile complexes.

P. aeruginosa = assay: as above; format: cell-based, Pseudomonas aeruginosa; conditions: Table 4, all ΔΔ- enantiomers
Experimental: as §1

E. coli ATCC 25922 = assay: MIC determination, broth micro-dilution (CAMHB); format: cell-based, Escherichia coli
Experimental: (§2) Four strains of bacteria were chosen for the susceptibility tests: S. aureus ATCC 25923; MRSA (a wild clinical strain from the JCU culture collection); E. coli ATCC 25922 and P. aeruginosa ATCC 27853. The bacteria were grown on Mueller Hinton agar (OXOID, cat. No. CM0337) and suspended in growth medium cation-adjusted Mueller Hinton broth (CAMHB, OXOID, cat. No. CM0405). The MIC of each complex was determined in duplicate by standard micro-dilution methodology (British Society for Antimicrobial Chemotherapy Working Party, J. Antimicrob. Chemother., 1991, 27(suppl. D), 22) using gentamicin as the positive control. The ruthenium complexes were dissolved in CAMHB to a stock solution of […] and two-fold diluted in the broth in 96-well plates in a final volume of […] in each well. The same volume […] of bacterial suspension was added in each well making a concentration range of 0.25 mg ml^−1 to 128 mg ml^−1 for each complex. The plates were incubated at 37° C. for 24 h. The results are summarised in Table 1 below, using the following abbreviations: • Rubpm=ΔΔ-[{Ru(phen)2}2(μ-2,2′-bipyrimidine)]Cl4 • Rudppm=ΔΔ-[{Ru(phen)2}2(μ-4,6-bis(2-pyridyl)pyrimidine)]Cl4 • Rubb7trinuclear=Δ*Δ*-[{Ru*(phen)2}(μ-bb7){Ru(phen)}(μ-bb7){Ru*(phen)2}]Cl6 (only the two terminal metal centres are chiral, the two central metal centres are racemic) • Rubb7tetranuclear=Δ*Δ*-[{Ru*(phen)2}(μ-bb7) {Ru(phen)}(μ-bb7){Ru(phen)}(μ-bb7)-{Ru*(phen)2}]Cl8 (only the two terminal metal centres are chiral, the two central metal centres are racemic)
as §1

E. coli = assay: Minimum Bactericidal Concentration (MBC) assay (CAMHB); format: cell-based, Escherichia coli; conditions: Table 4, all ΔΔ- enantiomers
Experimental: as §1

P. aeruginosa ATCC 27853 = assay: MIC determination, broth micro-dilution (CAMHB); format: cell-based, Pseudomonas aeruginosa
Experimental: as §2, §1

MRSA = assay: Minimum Bactericidal Concentration (MBC) assay (CAMHB); format: cell-based, methicillin-resistant S. aureus; conditions: Table 4, all ΔΔ- enantiomers
Experimental: as §1

[1] = tested on: MRSA (a wild clinical strain from the JCU culture collection); assay: MIC determination, broth micro-dilution (CAMHB); format: cell-based, methicillin-resistant S. aureus
Experimental: as §2, §1

S. aureus ATCC 25923 = assay: MIC determination, broth micro-dilution (CAMHB); format: cell-based, Staphylococcus aureus
Experimental: as §2, §1

[2] = format: physicochemical; conditions: pH 7.4
Experimental: The primary difference between the members of the Rubbn family of complexes is the number of methylene groups in the flexible linking chain. […] Lipophilicity is a significant factor affecting the biological activity of most therapeutic compounds, as it relates to the capacity of the drug to penetrate through the cell membrane. The standard octanol-water partition coefficient (logP) was determined for the Rubbn series (F. Lombardo, B. Faller, M. Shalaeva, I. Tetko and S. Tilton, Methods and Principles in Medicinal Chemistry, 2008, 37, 407) parent model mononuclear species ([Ru(phen)2(Me2bpy)]^2+) and the trinuclear and tetranuclear complexes.
The partition coefficients (logP) were measured using the shake flask technique: each ruthenium complex (at both 0.05 and 0.1 mM) was dissolved in the water phase (0.2 M Na2HPO4—NaH2PO4 buffer, pH=7.4) and an equivalent volume of n-octanol was added.
The two phases were mutually saturated by shaking overnight at ambient temperature and then were allowed to separate on standing. The concentration of the metal complex in each phase was determined spectrophotometrically at l=450 nm.

E. faecalis = assay: Further MIC assays, whole spectrum bacteria (CAMHB); format: cell-based; set-up: unit not given beside the values; conditions: Table 3; Broth: CAMHB
Experimental: (§3) Further MIC assays were conducted against five different bacteria with Rubbn (n=7, 10, 12, 16), two rigid dinuclear species (bridges bpm and dppm) and Gentamicin—Whole spectrum bacteria MIC test results (Broth: CAMHB).

A. baumanii = assay: as above; format: cell-based; set-up: unit not given here; conditions: Table 3; Broth: CAMHB
Experimental: as §3

VRE = assay: as above; format: cell-based, vancomycin-resistant Enterococcus; conditions: Table 3; Broth: CAMHB
Experimental: as §3

S. typhimurium = assay: as above; format: cell-based; conditions: Table 3; Broth: CAMHB
Experimental: as §3

S. epidermidis = assay: as above; format: cell-based; conditions: Table 3; Broth: CAMHB
Experimental: as §3

[3] = Table 4, CAMHB, all ΔΔ- enantiomers

Compound | MBC S. aureus (S. aureus) [µg/mL] | MBC P. aeruginosa (P. aeruginosa) [µg/mL] | MIC E. coli (E. coli ATCC 25922; [3]) | MBC E. coli (E. coli) [µg/mL] | MIC P. aeruginosa (P. aeruginosa ATCC 27853; [3]) | MBC MRSA (MRSA) [µg/mL] | MIC MRSA [1, 3] | MIC S. aureus (S. aureus ATCC 25923; [3]) | logP [2] | MIC E. faecalis (E. faecalis) | MIC E. coli (E. coli ATCC 25922; Table 1, 37° C., 24 h) [µg/mL] | MIC P. aeruginosa (P. aeruginosa ATCC 27853; Table 1, 37° C., 24 h) [µg/mL] | MIC MRSA ([1]; Table 1, 37° C., 24 h) [µg/mL] | MIC A. baumanii (A. baumanii) | MIC VRE (VRE) | MIC S. typhimurium (S. typhimurium) | MIC S. epidermidis (S. epidermidis) | MIC S. aureus (S. aureus ATCC 25923; Table 1, 37° C., 24 h)
Cc1cc[n+]2c(c1)-c1cc(CCCCCCCc3cc[n+]4c(c3)-c3cc(C)cc[n+]3[Ru-4]435([n+]4cccc6ccc7ccc[n+]3c7c64)[n+]3cccc4ccc6ccc[n+]5c6c43)cc[n+]1[Ru-4]213([Cl])[n+]2ccccc2-c2cccc([n+]21)-c1cccc[n+]13 [Ru(μ-bb7)Ru—Cl, [Ru(phen)2(μ-bb7)Ru(terpy)Cl]] | 16 | 32 | 1 | 1 | 16 | 32 | 8 | 8 | – | – | – | – | – | – | – | – | – | –
Cc1cc[n+]2c(c1)-c1cc(CCCCCCCc3cc[n+]4c(c3)-c3cc(C)cc[n+]3[Ru-4]435([n+]4cccc6ccc7ccc[n+]3c7c64)[n+]3cccc4ccc6ccc[n+]5c6c43)cc[n+]1[Ru-4]213([n+]2cccc4ccc5ccc[n+]1c5c42)[n+]1cccc2ccc4ccc[n+]3c4c21.F[P-](F)(F)(F)(F)F.F[P-](F)(F)(F)(F)F.F[P-](F)(F)(F)(F)F.F[P-](F)(F)(F)(F)F [Rubb7, [{Ru(phen)2}2(μ-bb7)](PF6)4] | 32 | 128 | 16 | 16 | 64 | 32 | 16 | 16 | −3.4 | – | – | – | – | – | – | – | – | –
Cc1cc[n+]2c(c1)-c1cc(CCCCCCCCCCCCc3cc[n+]4c(c3)-c3cc(C)cc[n+]3[Ru-4]435([Cl])[n+]4ccccc4-c4cccc([n+]43)-c3cccc[n+]35)cc[n+]1[Ru-4]213([Cl])[n+]2ccccc2-c2cccc([n+]21)-c1cccc[n+]13.F[P-](F)(F)(F)(F)F.F[P-](F)(F)(F)(F)F [Rubb12-Cl, [{Ru(terpy)(Cl)}2(μ-bb12)](PF6)2] | 1 | 16 | 2 | 2 | 8 | 1 | 1 | 1 | – | – | – | – | – | – | – | – | – | –
[Cl-].[Cl-].[Cl-].[Cl-].c1cc[n+]2c(c1)-c1cc3[n+](c[n+]1[Ru-4]214([n+]2cccc5ccc6ccc[n+]1c6c52)[n+]1cccc2ccc5ccc[n+]4c5c21)[Ru-4]12([n+]4ccccc4-3)([n+]3cccc4ccc5ccc[n+]1c5c43)[n+]1cccc3ccc4ccc[n+]2c4c31 [Rudppm, ΔΔ-[{Ru(phen)2}2(μ-4,6-bis(2-pyridyl)pyrimidine)]Cl4, reference compound] | – | – | – | – | – | – | – | – | – | >128 | >128 | >128 | >128 | >128 | >128 | >128 | >128 | >128 µg/mL
[Ru(phen)2(μ-bb12)Ru(terpy)Cl](PF6)3 [Ru(μ-bb12)Ru—Cl] | 1 | 32 | 1 | 1 | 16 | 2 | 1 | 1 | – | – | – | – | – | – | – | – | – | –
[Ru(phen)2(μ-bb16)Ru(terpy)Cl](PF6)3 [Ru(μ-bb16)Ru—Cl] | 2 | 64 | 4 | 4 | 64 | 2 | 2 | 2 | – | – | – | – | – | – | – | – | – | –
[{Ru(terpy)(Cl)}2(μ-bb14)](PF6)2 [Rubb14-Cl] | 1 | 64 | 2 | 2 | 32 | 2 | 1 | 1 | – | – | – | – | – | – | – | – | – | –
[{Ru(terpy)Cl}2(μ-bb7)] [Rubb7-Cl] | 8 | 64 | 8 | 8 | 32 | 16 | 8 | 8 | – | – | – | – | – | – | – | – | – | –
gentamicin [reference compound] | – | – | – | – | – | – | – | – | – | 32 | 0.5 | 0.125 | 16 | 16 | 16 | 2 | <0.125 | ≦0.0625 μg.ml^−1
Δ-[Ru(phen)2(Me2bipy)](PF6)2 [[Ru(phen)2(Me2bpy)]^2+, reference compound] | – | – | – | – | – | – | – | – | −2.9 | – | >128 | >128 | >128 | – | – | – | – | 128 µg/mL
Δ-[Ru(phen)2(bb16)]Cl2 [Rubb16mono] | – | – | – | – | – | – | – | – | +2.1 | – | 64 | 64 | 16 | – | – | – | – | 16 µg/mL
ΔΔ-[{Ru(phen)2}2(μ-2,2′-bipyrimidine)]Cl4 [Rubpm, reference compound] | – | – | – | – | – | – | – | – | – | >128 | >128 | >128 | >128 | >128 | >128 | >128 | >128 | >128 µg/mL

— patent publication US20130172308A1, “ANTIMICROBIAL AGENTS” (John Grant COLLINS, priority 2011, published 2013)
